Where a SMILES comes first, the peptide text is derived from it. Bridges are numbered along the chain shown (N, C = ends). [ ]: non-standard residue; d: D form. The star is where a group is joined. hPhe(3-Cl-4-CF3) = N[C@@H](CCc1ccc(C(F)(F)F)c(Cl)c1)C(=O)O; NPrPhe(4-CF3) = CCCN[C@@H](Cc1ccc(C(F)(F)F)cc1)C(=O)O; NMePhe(4-Me) = CN[C@@H](Cc1ccc(C)cc1)C(=O)O; NMeGly(cPent) = CN[C@H](C(=O)O)C1CCCC1; NEtPhe = CCN[C@@H](Cc1ccccc1)C(=O)O; NMeGly(cBu) = CN[C@H](C(=O)O)C1CCC1; NMeD = CN[C@@H](CC(=O)O)C(=O)O; NMeL = CN[C@@H](CC(C)C)C(=O)O; Morpholide = C1CN(*)CCO1; NMeA = CN[C@@H](C)C(=O)O; NMeAib = CNC(C)(C)C(=O)O; Nle = CCCC[C@H](N)C(=O)O; Piperidide = C1CCN(*)CC1; Ac5c = NC1(C(=O)O)CCCC1; Aze = O=C(O)[C@@H]1CCN1; Ac4c = NC1(C(=O)O)CCC1; Sar = CNCC(=O)O

Test [1] has as its target GDP-bound KRAS wild-type protein (Homo sapiens, UniProt P01116). Description: Binding to KRAS by surface plasmon resonance (SPR), Single Cycle Kinetics. To be noted: SPR Single Cycle Kinetics, GDP-bound KRAS wild-type protein, 1:1 binding model; read-out: KRAS KD. (In general: In SPR one partner is held on a chip, and binding of the other changes the refractive index at the surface.)

Test [2] addresses GDP-bound NRAS wild-type protein (Homo sapiens, UniProt P01111). Description: Binding to NRAS by surface plasmon resonance (SPR), Single Cycle Kinetics. To be noted: SPR, GDP-bound NRAS wild-type protein vs GDP-bound KRAS wild-type protein.
Test [3] deals with GDP-bound HRAS wild-type protein (Homo sapiens, UniProt P01112). Put plainly: Binding to HRAS by surface plasmon resonance (SPR), Single Cycle Kinetics. The following applies: SPR, GDP-bound HRAS wild-type protein vs GDP-bound KRAS wild-type protein.
Sequence of GDP-bound HRAS wild-type protein (P01112 whole entry): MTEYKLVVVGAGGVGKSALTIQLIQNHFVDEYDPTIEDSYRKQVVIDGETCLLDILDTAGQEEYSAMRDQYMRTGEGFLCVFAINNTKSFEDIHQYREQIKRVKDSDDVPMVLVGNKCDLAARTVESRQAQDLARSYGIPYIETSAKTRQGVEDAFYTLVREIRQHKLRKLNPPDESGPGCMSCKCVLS

Sequence of GDP-bound KRAS wild-type protein (P01116 whole entry): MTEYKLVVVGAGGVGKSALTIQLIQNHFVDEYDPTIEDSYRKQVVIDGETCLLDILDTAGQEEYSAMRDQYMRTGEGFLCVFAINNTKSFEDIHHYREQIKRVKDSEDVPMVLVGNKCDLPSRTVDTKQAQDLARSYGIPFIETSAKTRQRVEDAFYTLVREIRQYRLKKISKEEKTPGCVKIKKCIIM
Sequence of GDP-bound NRAS wild-type protein (P01111 whole entry): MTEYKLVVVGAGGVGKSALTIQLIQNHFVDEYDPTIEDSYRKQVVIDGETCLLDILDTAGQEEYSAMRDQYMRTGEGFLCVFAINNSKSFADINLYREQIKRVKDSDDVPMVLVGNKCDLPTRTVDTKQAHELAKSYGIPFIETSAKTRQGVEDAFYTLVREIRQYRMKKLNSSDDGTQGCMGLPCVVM

As a reminder, the Kd is the equilibrium constant for the complex coming apart. As for `CCO[C@@H]1C[C@H]2C(=O)NC3(CCC3)C(=O)N(C)[C@@H](C3CCCC3)C(=O)N(CCC3CCCC3)[C@H](C(=O)N(C)C)CC(=O)N(C)[C@@H](CC)C(=O)N[C@@H]([C@@H](C)CC)C(=O)N(C)CC(=O)N(C)[C@H]3CCCCCN(C3=O)[C@@H](Cc3ccc(C(F)(F)F)cc3)C(=O)N(C)CC(=O)N[C@@H](CCc3cc(F)c(C(F)(F)F)c(F)c3)C(=O)N2C1` [PP0636], the Kd in test [1] is 8600 pM. Besides, the “NRAS/KRAS (ratio of KD value with respect to NRAS to KD value with respect to KRAS)” value in test [2] was “A (a compound having 10 or more and less than 20 is denoted as A)”. Moreover, the “HRAS/KRAS (ratio of KD value with respect to HRAS to KD value with respect to KRAS)” value in test [3] was “A (a compound having 10 or more and less than 20 is denoted as A)”.
Turning to `CC[C@H](C)[C@@H]1NC(=O)[C@H](CC(C)C)N(C)C(=O)C[C@@H](C(=O)N2CCOCC2)N(C)C(=O)[C@H](C2CCCC2)N(C)C(=O)C2(CCCC2)NC(=O)[C@@H]2CCCN2C(=O)[C@H](CCc2ccc(C(F)(F)F)c(Cl)c2)NC(=O)CN(C)C(=O)[C@H](Cc2ccc(C)cc2)N2CC/C=C\C[C@@H](C2=O)N(C)C(=O)CN(C)C1=O` [PP0461], the Kd in test [1] stood at 490 pM. Further, in test [2], the “NRAS/KRAS (ratio of KD value with respect to NRAS to KD value with respect to KRAS)” value is “A (a compound having 10 or more and less than 20 is denoted as A)”. Besides, the “HRAS/KRAS (ratio of KD value with respect to HRAS to KD value with respect to KRAS)” value in test [3] was “A (a compound having 10 or more and less than 20 is denoted as A)”.
Consider `CC[C@H](C)[C@@H]1NC(=O)[C@H](CC(C)C)N(C)C(=O)C[C@@H](C(=O)N2CCOCC2)N(C)C(=O)[C@H](C2CCCC2)N(C)C(=O)C2(CCCC2)NC(=O)[C@@H]2CCCN2C(=O)[C@H](CCc2ccc(C(F)(F)F)c(Cl)c2)NC(=O)CN(C)C(=O)[C@H](Cc2ccccc2)N(CC)C(=O)[C@@H]2CCN2C(=O)[C@H](C)N(C)C1=O` [PP0215] ([NMeL]I[NMeA][Aze][NEtPhe][Sar][hPhe(3-Cl-4-CF3)]P[Ac5c][NMeGly(cPent)][NMeD]-Morpholide; lactam N-11), for which the Kd in test [1] amounted to 410 pM. Besides, the “NRAS/KRAS (ratio of KD value for NRAS to KD value for KRAS)” value in test [2] was “C (A compound having a KD ratio of 0.1 or more and less than 3 is denoted as C)”. Also, the “HRAS/KRAS (ratio of KD value for HRAS to KD value for KRAS)” value in test [3] is “C (A compound having a KD ratio of 0.1 or more and less than 3 is denoted as C)”.
With `CCCN1C(=O)CN(C)C(=O)CN(C)C(=O)[C@H]([C@@H](C)CC)NC(=O)[C@H](CC(C)C)N(C)C(=O)C[C@@H](C(=O)N(C)C)NC(=O)[C@H](C2CCCC2)N(C)C(=O)C2(CCC2)NC(=O)[C@@H]2CCCN2C(=O)[C@H](CCc2ccc(C(F)(F)F)c(Cl)c2)NC(=O)CN(C)C(=O)[C@@H]1Cc1ccc(C(F)(F)F)cc1` [PP0356] ([NMeL]I[Sar][Sar][NPrPhe(4-CF3)][Sar][hPhe(3-Cl-4-CF3)]P[Ac4c][NMeGly(cPent)]D-NMe2; lactam N-11), the Kd in test [1] came out at 490 pM. The “NRAS/KRAS (ratio of KD value for NRAS to KD value for KRAS)” value in test [2] is “B (a compound having 3 or more and less than 10 is denoted as B)”. In addition, the “HRAS/KRAS (ratio of KD value for HRAS to KD value for KRAS)” value in test [3] is “B (a compound having 3 or more and less than 10 is denoted as B)”.
`CCCN1C(=O)CN(C)C(=O)CN(C)C(=O)[C@H]([C@@H](C)CC)NC(=O)[C@H](C2CCC2)N(C)C(=O)C[C@@H](C(=O)N2CCOCC2)N(C)C(=O)[C@H](C2CCCC2)N(C)C(=O)C2(CCCC2)NC(=O)[C@@H]2CCCN2C(=O)[C@H](CCc2ccc(C(F)(F)F)c(Cl)c2)NC(=O)CN(C)C(=O)[C@@H]1Cc1ccc(C(F)(F)F)cc1` [PP0188] ([NMeGly(cBu)]I[Sar][Sar][NPrPhe(4-CF3)][Sar][hPhe(3-Cl-4-CF3)]P[Ac5c][NMeGly(cPent)][NMeD]-Morpholide; lactam N-11): the Kd in test [1] came to 250 pM. Moreover, the “NRAS/KRAS (ratio of KD value for NRAS to KD value for KRAS)” value in test [2] was “B (a compound having 3 or more and less than 10 is denoted as B)”. The “HRAS/KRAS (ratio of KD value for HRAS to KD value for KRAS)” value in test [3] is “C (A compound having a KD ratio of 0.1 or more and less than 3 is denoted as C)”.
As to `CCCC[C@@H]1NC(=O)[C@H](CCc2ccc(C(F)(F)F)c(Cl)c2)NC(=O)CN(C)C(=O)[C@H](Cc2ccc(C)cc2)N(C)C(=O)CN(C)C(=O)CN(C)C(=O)[C@H]([C@@H](C)CC)NC(=O)[C@H](CC(C)C)N(C)C(=O)C[C@@H](C(=O)N2CCCCC2)N(C)C(=O)[C@H](CC(C)C)NC(=O)C(C)(C)N(C)C1=O` [PP0049] ([NMeL]I[Sar][Sar][NMePhe(4-Me)][Sar][hPhe(3-Cl-4-CF3)][Nle][NMeAib]L[NMeD]-Piperidide; lactam N-11), in test [1], the dissociation constant (Kd) stood at 6300 pM. The “NRAS/KRAS (ratio of KD value for NRAS to KD value for KRAS)” value in test [2] was “C (A compound having a KD ratio of 0.1 or more and less than 3 is denoted as C)”. Besides, the “HRAS/KRAS (ratio of KD value for HRAS to KD value for KRAS)” value in test [3] is “C (A compound having a KD ratio of 0.1 or more and less than 3 is denoted as C)”.
As for `CCCN1C(=O)CN(C)C(=O)CN(C)C(=O)[C@H]([C@@H](C)CC)NC(=O)[C@H](CC(C)C)N(C)C(=O)C[C@@H](C(=O)N2CCOCC2)N(C)C(=O)[C@H](C2CCCC2)N(C)C(=O)C2(CCC2)NC(=O)[C@@H]2CCCN2C(=O)[C@H](CCc2ccc(C(F)(F)F)c(Cl)c2)NC(=O)CN(C)C(=O)[C@@H]1Cc1ccc(C(F)(F)F)cc1` [PP0197] ([NMeL]I[Sar][Sar][NPrPhe(4-CF3)][Sar][hPhe(3-Cl-4-CF3)]P[Ac4c][NMeGly(cPent)][NMeD]-Morpholide; lactam N-11), in test [1], the Kd was 130 pM. Also, in test [2], the “NRAS/KRAS (ratio of KD value for NRAS to KD value for KRAS)” value is “B (a compound having 3 or more and less than 10 is denoted as B)”. For the same molecule, the “HRAS/KRAS (ratio of KD value for HRAS to KD value for KRAS)” value in test [3] is “C (A compound having a KD ratio of 0.1 or more and less than 3 is denoted as C)”.
